Measurements published in patent US8592403B2, “Diazepine and diazocane compounds as MC4 agonists” (Pfizer Limited, priority 2008, dated 2013).

Assays:
[1] = In vitro metabolism rate determination, human liver microsome (HLM) assay; assay type: in vitro ADME; conditions: human, liver microsomes, read-out: HLM: Clint, app
Summary of the method: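 Human liver microsomes at 0.5 nmol cytochrome P450/ml with 1 μM substrate, pre-warmed 5 min at 37° C, reaction started with NADP; samples taken 0–60 min and terminated. Substrate loss measured; first-order rate constant from log-linear regression converted to half-life or Clint (μl/min/mg protein).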

CYP3A4 = biological target: T1, CYP3A4 (Homo sapiens, UniProt P08684); test: High density DDI 3 μM cocktail screen in human liver microsomes, midazolam probe; assay type: in vitro ADME; conditions: human, liver microsomes, probe midazolam, read-out: % inhibition 3A4 @ 3 μM
T1 construct: utilizes human liver microsomes together with isoform-specific clinical drug probes; from tissue; host or cells: human liver microsomes
Summary of the method: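 Pooled human liver microsomes incubated with isoform-specific clinical probe substrates as a cocktail (midazolam for CYP3A4), with or without test compound at 3 μM. Metabolite formation followed over time by LC-MS/MS. Inhibition expressed as a single-point percentage.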

MC4 receptor = MC4 receptor (Homo sapiens, UniProt P32245); test: MC4 EC50 functional potency (protocol E of US2005/0176772 / WO 2005/077935); assay type: cell-based
Method: The compounds of formula (I) of the present invention have utility as MCR4 agonists in the treatment of various disease states.
MC5 and MC4 EC50 activity was determined as described by assay protocols D and E, respectively, in US2005/0176772 (pages 28-30).

Chain of MC4 receptor (P32245 whole entry): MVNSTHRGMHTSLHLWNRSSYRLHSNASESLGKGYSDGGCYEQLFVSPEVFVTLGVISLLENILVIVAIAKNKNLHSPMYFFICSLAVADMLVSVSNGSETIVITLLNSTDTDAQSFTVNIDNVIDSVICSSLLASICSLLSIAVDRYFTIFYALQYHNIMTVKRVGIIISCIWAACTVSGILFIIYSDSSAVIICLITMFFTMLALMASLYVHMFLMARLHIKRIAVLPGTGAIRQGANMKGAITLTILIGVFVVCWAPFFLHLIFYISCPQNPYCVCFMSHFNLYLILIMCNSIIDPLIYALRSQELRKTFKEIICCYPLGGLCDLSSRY
T1 sequence (P08684 whole entry, canonical isoform): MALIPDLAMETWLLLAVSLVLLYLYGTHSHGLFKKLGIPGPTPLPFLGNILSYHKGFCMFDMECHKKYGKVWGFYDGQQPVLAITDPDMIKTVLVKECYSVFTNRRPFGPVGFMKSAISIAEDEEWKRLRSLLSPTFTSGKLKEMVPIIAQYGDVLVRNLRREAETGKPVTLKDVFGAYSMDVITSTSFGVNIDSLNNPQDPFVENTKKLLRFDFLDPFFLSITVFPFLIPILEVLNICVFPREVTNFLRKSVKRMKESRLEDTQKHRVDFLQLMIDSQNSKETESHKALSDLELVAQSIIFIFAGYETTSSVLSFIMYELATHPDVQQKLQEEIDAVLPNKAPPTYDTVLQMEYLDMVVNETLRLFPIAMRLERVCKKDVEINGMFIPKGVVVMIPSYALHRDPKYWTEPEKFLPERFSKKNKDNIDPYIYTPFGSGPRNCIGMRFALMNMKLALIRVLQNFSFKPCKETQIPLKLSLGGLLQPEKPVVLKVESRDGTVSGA

Row | SMILES | microsomal CLint at 1 μM [1] [µL/min/mg] | inhibition at 3 µM (CYP3A4) [%] | EC50 (MC4 receptor) [nM]
1 | CCCC(=O)N1CCN(C(=O)[C@@H]2CN(c3cccnn3)C[C@H]2c2ccc(F)cc2F)CCCC1c1ccccc1 (mixture of isomers) [Example 101] | 143 | 83 | 7.12
2 | CS(=O)(=O)N1CCN(C(=O)[C@@H]2CN(c3ccc(=O)[nH]n3)C[C@H]2c2ccc(F)cc2F)CCCC1c1ccc(Cl)cc1 (mixture of isomers) [Example 79] | 22 | 51 | 17.1
3 | CS(=O)(=O)N1CCN(C(=O)C2CN(c3ccc(=O)[nH]n3)CC2c2ccc(F)cc2F)CCCC1c1ccc(F)cc1 (stereo not drawn) [Example 78] | 54 | 49 | 40.3
4 | CC(=O)N1CCN(C(=O)[C@@H]2CN(c3cccnn3)C[C@H]2c2ccc(F)cc2F)CCCC1c1ccccc1 (mixture of isomers) [Example 103] | 102 | 53.8 | 9.79
5 | COc1ccc([C@@H]2CN(c3ccc(C#N)nn3)C[C@H]2C(=O)N2CCC[C@@H](c3ccc(Cl)cc3)N(C(C)=O)CC2)c(F)c1 [Example 67] | 21.4 | 29.5 | 7.73
6 | COC(=O)N1CCN(C(=O)[C@@H]2CN(c3ccc(=O)[nH]n3)C[C@H]2c2ccc(OC)cc2F)CCC[C@@H]1c1ccc(Cl)cc1 [Example 90, methyl 8R-(4-chlorophenyl)-4-{[(3S,4R)-4-(2-fluoro-4-methoxyphenyl)-1-(6-oxo-1,6-dihydropyridazin-3-yl)pyrrolidin-3-yl]carbonyl}-1,4-diazocane-1-carboxylate] | 11.7 | 53.8 | 1.83
7 | CC(C)C(=O)N1CCN(C(=O)[C@@H]2CN(C(C)(C)C)C[C@H]2c2ccc(Cl)cn2)CCC[C@H]1c1ccc(Cl)cc1 [Example 20, 1-{[(3S,4S)-1-tert-butyl-4-(5-chloropyridin-2-yl)pyrrolidin-3-yl]carbonyl}-5S-(4-chlorophenyl)-4-isobutyryl-1,4-diazocane] | 18.1 | 50.2 | 5.46
8 | COC(=O)N1CCN(C(=O)[C@@H]2CN(c3ccc(=O)n(C)n3)C[C@H]2c2ccc(F)cc2F)CCC[C@H]1c1ccc(Cl)cc1 [Example 66, methyl (8S-4-chlorophenyl)-4-{[(3S,4R)-4-(2,4-difluorophenyl)-1-(1-methyl-6-oxo-1,6-dihydropyridazin-3-yl)pyrrolidin-3-yl]carbonyl}-1,4-diazocane-1-carboxylate] | 20.5 | 54.2 | 2.99
9 | CC(=O)N1CCN(C(=O)[C@@H]2CN(c3ccc(C#N)nn3)C[C@H]2c2ccc(Cl)cn2)CCC[C@H]1c1ccc(Cl)cc1 [Example 72] | 13 | 20.4 | 26.1
10 | CC(=O)N1CCN(C(=O)[C@@H]2CN(c3ccc4nncn4n3)C[C@H]2c2ccc(Cl)cn2)CCC[C@H]1c1ccc(Cl)cc1 [Example 6, 6-[(3S,4S)-3-{[4-acetyl-5S-(4-chlorophenyl)-1,4-diazocan-1-yl]carbonyl}-4-(5-chloropyridin-2-yl)pyrrolidin-1-yl][1,2,4]triazolo[4,3-b]pyridazine] | 13.5 | 54.2 | 1.12
11 | COc1ccc([C@@H]2CN(c3ccc(=O)n(C)n3)C[C@H]2C(=O)N2CCCC(c3ccc(Cl)cc3)N(S(C)(=O)=O)CC2)c(F)c1 (single isomer, unassigned) [Example 117] | 35.1 | 44.5 | 34.9
12 | CC(C)(C)N1C[C@@H](C(=O)N2CCC[C@@H](c3ccc(Cl)cc3)N(C(=O)C3CCC3)CC2)[C@H](c2ccc(F)cc2F)C1 [Example 14] | 82.8 | 56.1 | 13.4
13 | CNC(=O)N1CCN(C(=O)[C@@H]2CN(c3cccnn3)C[C@H]2c2ccc(F)cc2F)CCCC1c1ccccc1 (mixture of isomers) [Example 73] | 53 | 88 | 12.2
14 | CS(=O)(=O)N1CCN(C(=O)[C@@H]2CN(c3ccc(C#N)nn3)C[C@H]2c2ccc(F)cc2F)CCCC1c1ccc(Cl)cc1 (mixture of isomers) [Example 76] | 11 | 33.5 | 50
15 | COc1ccc([C@@H]2CN(C(C)(C)C)C[C@H]2C(=O)N2CCC[C@@H](c3ccc(Cl)cc3)N(C(C)=O)CC2)c(F)c1 [Example 70] | 28.3 | 36 | 20.6
16 | COC(=O)N1CCN(C(=O)[C@@H]2CN(c3ccc(=O)n(C)n3)C[C@H]2c2ccc(OC)cc2F)CCC[C@H]1c1ccc(Cl)cc1 [Example 118] | 23.2 | 48 | 1.83
17 | CC(C)C(=O)N1CCN(C(=O)[C@@H]2CN(C(C)(C)C)C[C@H]2c2ccc(F)cc2F)CCC[C@H]1c1ccc(Cl)cc1 [Example 11] | 23.6 | 53.5 | 6.73
18 | COC(=O)N1CCN(C(=O)[C@@H]2CN(C(C)(C)C)C[C@H]2c2ccc(OC)cc2F)CCCC1c1ccc(Cl)cc1 (stereo partly drawn) [Example 91] | 46.9 | 33 | 20.2
19 | COc1ccc([C@@H]2CN(c3ccc(=O)[nH]n3)C[C@H]2C(=O)N2CCC[C@@H](c3ccc(Cl)cc3)N(C(C)=O)CC2)c(F)c1 [Example 68, 6-[(3S,4R)-3-{[4-acetyl-5S-(4-chlorophenyl)-1,4-diazocan-1-yl]carbonyl}-4-(2-fluoro-4-methoxyphenyl)pyrrolidin-1-yl]pyridazin-3(2H)-one] | 13.7 | 29.5 | 4.3
20 | COC(=O)N1CCN(C(=O)[C@@H]2CN(c3ccc(=O)n(C)n3)C[C@H]2c2ccc(F)cc2F)CCC[C@@H]1c1ccc(Cl)cc1 [Example 56] | 20.5 | 54.2 | 2.99
21 | COC(=O)N1CCN(C(=O)[C@@H]2CN(c3ccc(=O)n(C)n3)C[C@H]2c2ccc(OC)cc2F)CCC[C@@H]1c1ccc(Cl)cc1 [Example 119, methyl 8R-(4-chlorophenyl)-4-{[(3S,4R)-4-(2-fluoro-4-methoxyphenyl)-1-(1-methyl-6-oxo-1,6-dihydropyridazin-3-yl)pyrrolidin-3-yl]carbonyl}-1,4-diazocane-1-carboxylate] | 18.8 | 54.5 | 8.53
22 | CC(C)(C)C(=O)N1CCN(C(=O)[C@@H]2CN(C(C)(C)C)C[C@H]2c2ccc(F)cc2F)CCC[C@H]1c1ccc(Cl)cc1 [Example 15] | 57.4 | 64.4 | 10.6
23 | CCC(=O)N1CCN(C(=O)[C@@H]2CN(C(C)(C)C)C[C@H]2c2ccc(F)cc2F)CCC[C@H]1c1ccc(Cl)cc1 [Example 10] | 22.1 | 37.1 | 17.3
